Assay results from publication PMC12731105, “Design and Synthesis of New Quinoxaline Analogs to Regenerate Sensory Auditory Hair Cells” (Cells, 2025).
Like-named read-outs stand apart in the source and are kept apart here.

Legend:
[1] = PAMPA permeability assay; assay type: in vitro ADME
Procedure: The parallel artificial membrane permeability assay (PAMPA), an artificial membrane that simulates a biological membrane, was used. A 96-well membrane filter-based microtiter plate system with donor and acceptor compartments separated by the membrane was employed. The compounds were dissolved in 5% DMSO in phosphate-buffered saline (PBS) solution with Lucifer yellow, a dye used to assess membrane integrity. The solution was placed in the donor well, and PBS was added to the acceptor well. The membrane was generated by dissolving lecithin in an inert organic solvent and placed onto a hydrophobic PVDF filter.

[2] = Metabolic stability against S9 fraction; assay type: in vitro ADME; conditions: human, liver S9 fraction, against human S9 fraction (footnote), NADPH, 37 °C; read-out: Metabolic Stability t1/2 (converted)
Procedure: The metabolic stability of the prodrug was assessed in the mouse liver S9 fraction. Briefly, 5 μg/mL of prodrug was incubated with 1 mg/mL mouse liver S9 fraction supplemented with 1 mg/mL nicotinamide adenine dinucleotide phosphate (NADPH) in Dulbecco’s phosphate-buffered saline at 37 °C. At designated time points (i.e., 0, 0.5, 1, 2 h), 100 μL samples were collected and quenched immediately with 300 μL methanol containing 1 μg/mL internal standard. Samples were vortexed for 30 s and centrifuged at 15,000 rpm for 10 min. Supernatant was assessed by LC/MS.

[3] = Cytotoxicity, MTT colorimetric microculture assay; assay type: cell-based; conditions: mouse, HEI-OC1 cells (auditory cell line), NCI criterion of cytotoxicity IC50 < 20 μg/mL
Procedure: The cytotoxicity of Qx-294 and Qx-301 compounds was assessed in the mouse auditory HEI-OC1 cell line using the (MTT) colorimetric microculture assay method as previously described. HEI-OC1 cells were cultured in DMEM (Corning, NY, USA, 10-013-CVC) supplemented with 10% fetal bovine serum (FBS) (Pansera) and 50 μg/mL ampicillin for 12 h. For cytotoxic assessment, increasing concentrations of Qx-294 and Qx-301 were added to a HEI-OC1 cell suspension (5 × 10^4 cells/well). Cell growth was determined 72 h later by adding 50 µL of MTT (2.5 mg/mL). This was reduced by mitochondrial dehydrogenase of viable cells in an insoluble blue formazan product during the 4 h contact period at 37 °C. After the supernatant was removed, the formazan crystals were solubilized by adding DMSO (100 µL). These plates were read at 570 nm with SpectraMax® M Series Multi-Mode Microplate Reader with Soft Max Pro 7.2 GxP Software (Molecular Devices, Sunnyvale, CA, USA). At each dose level of the compounds tested, as well as the untreated (vehicle-only) controls, absorbance values were recorded and compared between different treatment and time points to assess cell growth and viability.

[4] = test system: mouse organ of Corti; assay: TUNEL assay in the mouse organ of Corti; assay type: in vivo; conditions: mice, any treatment group (24, 48, 72 h)
Procedure: (§1) C57BL/6J male and female mice between postnatal day 24 and 30 P-24-30) were randomized into control and experimental groups (9 mice per group per compound), with each experimental group receiving a single intraperitoneal (IP) injection of Qx-294 or Qx-301 at a dose of 300 mg/kg body weight, dissolved in dimethyl sulfoxide (DMSO). Controls consisted of treatment with DMSO alone (vehicle). A total of 90 adult wild-type C57/BL6 mice were used in this study. Based on the analysis, animals were examined at various times following treatment as described below.
In vitro cell proliferation effects of all ten initial compounds (Figure 1A,B) were tested on HEI-OC1, Neuro-2A and HT-1080 cells by TACS® 3-(4,5-dimethylthiazol-2-yl)-2,5-diphenyltetrazolium bromide (MTT) Cell Proliferation Assay (R&D Systems, Minneapolis, MN, USA, 4890-025-K), following the manufacturer’s protocol. Absorbance was measured with SpectraMax® M Series Multi-Mode Microplate Reader with Soft Max Pro 7.2 GxP Software (Molecular Devices, Sunnyvale, CA, USA), and the average OD in control cells was taken as 100% of viability. Upon selecting the most viable compounds (Qx-294 and Qx-301), we proceeded with in vivo experiments. […]

[5] = test system: mouse auditory function; assay: Distortion product otoacoustic emissions (DPOAE); assay type: in vivo, mice (Mus musculus); conditions: for Frequencies at which DPOAE threshold improvement was statistically significant: 72 h group, p < 0.05; for Frequencies at which DPOAE threshold improvement was statistically significant / DPOAE thresholds at higher frequencies vs control: Two-Way ANOVA; for DPOAE vs control, 24 h treatment / DPOAE thresholds at higher frequencies vs control: C57BL/6J mice; for DPOAE vs control, 24 h treatment: 24 h post-treatment; for DPOAE thresholds at higher frequencies vs control: p < 0.01
Procedure: as §1
Mice from all groups underwent auditory brainstem response (ABR) and distortion product otoacoustic emissions (DPOAEs) tests before the initiation of treatment with either compounds or vehicle, and at 24, 48, and 72 h post-treatment, as described below. After audiometric testing, pre-treatment mice were placed in a warm and clean cage and monitored until they were awake and able to remain upright in a sternal position. Alternatively, post-treatment mice had their cochleae processed for histological examination.
Methods for recording distortion product otoacoustic emissions (DPOAEs) were similar to those previously described. Stimuli for DPOAEs were generated and controlled with modules from TDT. Pure tone frequencies (f1, f2, f2/f1 ratio ¼ 1.25), at equal levels (L1 ¼ L2 ¼ 60 dBSPL), 150 ms duration, were generated with independent sources (TDT RX6 processor) and routed through separate drivers to mix acoustically in the ear canal (via plastic tubing placed securely at the external acoustic meatus). Stimuli were calibrated in a 0.1 mL coupler, which simulates the volume of the mouse ear canal. Stimulus frequencies for the primaries are such that geometric mean (GM ¼ (f1 x f2)0.5) frequencies ranged from 6.0 to 48.5 kHz (at least eight frequencies per octave). Ear canal sound pressure levels were recorded using a low-noise probe microphone (Etymotic ER 10Bþ). The microphone output was amplified and fed into the TDT RX6 processor for digital sampling, spectral averaging, and fast Fourier transform (FFT) processing. The amplitude of f1, f2, and the cubic difference distortion product (2f1–f2) were measured from the FFT waveform. The noise floor was measured from the amplitudes in the fifth and twelfth frequency bins above and below (±60 and 120, resp.) the 2f1-f2 component. For statistical comparison (Two-Way ANOVA), the mean DPOAE amplitude across all tested primary frequency pairs was calculated and compared between treatment and control groups.

Structure (SMILES): c1ccc2nc(N3CCOCC3)cnc2c1 [Qx-294, 2-(morpholine)-quinoxaline]
- Permeability ([1]; 16 h incubation): 3.5 ± 3.0 ×10^−6 cm/s^−1
- Papp at 16 h ([1]; read-out: PAMPA permeability): ~3.5 ×10⁻⁶ cm/s
- half-life at 5 μg/mL [2]: ~57 h
- IC50 at 72 h [3]: > 20 µg/mL
- Apoptosis (TUNEL) in the OC [4]: no signs of apoptosis
- Frequencies at which DPOAE threshold improvement was statistically significant [5]: above 16 kHz
- DPOAE vs control, 24 h treatment [5]: no statistically significant differences
- DPOAE thresholds at higher frequencies vs control [5]: significantly lower than those of the control group

Structure (SMILES): c1ccc2nc(N3CCCC3)cnc2c1 [Qx-301, 2-(pyrrolidine)-quinoxaline]
- Papp at 16 h ([1]; 16 h incubation, read-out: Permeability): 0.77 ± 0.91 ×10⁻⁶ cm/s
- half-life at 5 μg/mL [2]: 9.1 ± 8.4 h
- IC50 at 72 h [3]: > 20 µg/mL
- Apoptosis (TUNEL) in the OC [4]: no signs of apoptosis
- Frequencies at which DPOAE threshold improvement was statistically significant [5]: above 22.6 kHz
- DPOAE vs control, 24 h treatment [5]: no statistically significant differences
- DPOAE thresholds at higher frequencies vs control [5]: significantly lower than those of the control group
